According to EPA's ToxValDB 9.5 (doi:10.2903/j.efsa.2021.6237):

Columns and labels:
Colinus virginianus = conditions: acute; oral; mortality
Apis mellifera = conditions: acute, mortality
Anas platyrhynchos = conditions: short-term; oral; feed; mortality
Daphnia magna = conditions: chronic/long-term; duration: 21 days; reproduction
Canidae = conditions: subchronic; duration: 90 days; oral; Dog Other; clinical chemistry
Tagia sp. = conditions: chronic/long-term; duration: 56 days; reproduction
Oncorhynchus mykiss = conditions: chronic/long-term; duration: 60 days; other
Lepomis macrochirus = conditions: acute; duration: 96 hours; mortality

Structure (SMILES): COP(=S)(OC)SCN1C(=O)c2ccccc2C1=O [Phosmet]
- LD50 (Colinus virginianus): 56.2 mg/kg-day
- LD50 (Apis mellifera; dermal): 0.22 µg/piece
- LD50 (Apis mellifera; oral, unspecified): 0.302 µg/piece
- LD50 (Rattus norvegicus; acute, oral, mortality): 113 mg/kg-day
- NOAEL (Rattus norvegicus; chronic, duration: 2 years, clinical chemistry): 1.8 mg/kg-day
- NOAEL (Rattus norvegicus; developmental, development): 10 mg/kg-day
- NOAEL (Rattus norvegicus; reproduction developmental): 1 mg/kg-day
- NOAEL (Rattus norvegicus; subchronic, duration: 90 days, oral, clinical chemistry): 1.88 mg/kg-day
- LD50 (Anas platyrhynchos): > 2320 mg/kg-day
- NOEC (Daphnia magna): 0.78 µg/L
- NOAEL (Canidae): 1.88 mg/kg-day
- NOEC (Tagia sp.): 2.96 mg/kg
- NOEC (Oncorhynchus mykiss): 3.2 µg/L
- LD50 (Lepomis macrochirus): 19.7 µg/L
